One experiment concerns the target T1, Edg-7 (Homo sapiens, UniProt Q9UBY5).
T1 construct: expressed in transfected cells; host or cells: HTC (rat hepatoma) cells
T1 sequence (Q9UBY5 1-353): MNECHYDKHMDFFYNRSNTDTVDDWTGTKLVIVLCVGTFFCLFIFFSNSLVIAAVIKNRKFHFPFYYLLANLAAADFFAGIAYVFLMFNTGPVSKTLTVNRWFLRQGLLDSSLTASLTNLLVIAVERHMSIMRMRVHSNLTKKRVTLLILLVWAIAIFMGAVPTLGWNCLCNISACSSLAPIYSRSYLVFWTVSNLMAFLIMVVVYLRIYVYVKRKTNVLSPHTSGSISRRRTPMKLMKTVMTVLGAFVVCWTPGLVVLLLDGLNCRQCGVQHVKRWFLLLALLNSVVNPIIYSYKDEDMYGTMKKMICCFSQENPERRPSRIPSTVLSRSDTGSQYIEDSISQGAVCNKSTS
The experiment in a line: LPA-stimulated calcium increases in HTC cells expressing Edg-7. In kind it is cell-based. To be noted: concentrations as high as 10 μM.

The next experiment deals with Adrenergic β. Nature of the experiment: Radioligand binding assay, Adrenergic β. The following applies: Wistar rat brain; 0.25 nM 3H Dihydroaplenolol; significance criteria ≦50% of max stimulation or inhibition. Here is the method:
(§1) In order to test the selectivity of compounds, various radioligand binding assays were performed using numerous non-Edg receptor targets as listed below.
(§2) A radioligand binding assay was performed using adrenergic α1 according to the method of Greengrass and Bremner 1979, Eur. J. Pharmacol. 55:323-326. A radioligand binding assay was performed using adrenergic α2 according to the method of Boyajian and Leslie, 1987, J. Pharmacol. Exp. Ther. 241:1092-1098. A radioligand binding assay was performed using adrenergic β according to the method of Feve et al., 1994, Proc. Natl. Acad. Sci. USA 91:5677-5681. A radioligand binding assay was performed using angiotensin AT2 according to the method of Whitebread et al., 1991, Biochem. Biophys. Res. Comm. 181:1365-1371. A radioligand binding assay was performed using calcium channel Type L, dihydropyridine according to the method of Ehlert et al., 1982, Life Sci. 30:2191-2202. A radioligand binding assay was performed using dopamine D2L according to the method of Bunzo et al., 1988, Nature 336:783-787. A radioligand binding assay was performed using endothelin ETA according to the method of Mihara et al., 1994, J. Pharmacol. Exp Ther. 268:1122-1127. A radioligand binding assay was performed using histamine H1 Central according to the method of Hill et al., 1978, J. Neurochem. 31:997-1004. […]
(§3) Quantitation Method: Radioligand Binding […]

The target of a further experiment is T2, Dopamine D2L (Homo sapiens, UniProt P14416).
T2 construct: expressed in transfected cells; host or cells: CHO cells
T2 sequence (P14416 whole entry): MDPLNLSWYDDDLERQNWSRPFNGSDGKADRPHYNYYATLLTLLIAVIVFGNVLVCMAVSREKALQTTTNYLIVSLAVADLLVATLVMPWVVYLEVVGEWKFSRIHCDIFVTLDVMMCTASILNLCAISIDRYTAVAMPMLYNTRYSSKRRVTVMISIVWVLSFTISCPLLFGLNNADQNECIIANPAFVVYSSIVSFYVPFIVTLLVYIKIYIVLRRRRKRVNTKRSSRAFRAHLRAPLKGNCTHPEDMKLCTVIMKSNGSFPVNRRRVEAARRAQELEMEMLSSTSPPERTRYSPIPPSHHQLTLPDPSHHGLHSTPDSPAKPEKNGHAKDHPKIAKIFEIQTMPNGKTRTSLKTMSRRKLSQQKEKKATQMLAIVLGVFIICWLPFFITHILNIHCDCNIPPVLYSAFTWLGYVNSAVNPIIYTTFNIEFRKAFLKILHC
Nature of the experiment: Radioligand binding assay, Dopamine D2L. To be noted: Human recombinant CHO cells; 0.16 nM 3H Spiperone; significance criteria ≦50% of max stimulation or inhibition. Here is the method:
as §1, §2, §3

In a further experiment the target is T3, Edg-1 (Homo sapiens, UniProt P21453).
T3 construct: expressed in transfected cells; host or cells: HTC (rat hepatoma) cells
T3 sequence (P21453 whole entry): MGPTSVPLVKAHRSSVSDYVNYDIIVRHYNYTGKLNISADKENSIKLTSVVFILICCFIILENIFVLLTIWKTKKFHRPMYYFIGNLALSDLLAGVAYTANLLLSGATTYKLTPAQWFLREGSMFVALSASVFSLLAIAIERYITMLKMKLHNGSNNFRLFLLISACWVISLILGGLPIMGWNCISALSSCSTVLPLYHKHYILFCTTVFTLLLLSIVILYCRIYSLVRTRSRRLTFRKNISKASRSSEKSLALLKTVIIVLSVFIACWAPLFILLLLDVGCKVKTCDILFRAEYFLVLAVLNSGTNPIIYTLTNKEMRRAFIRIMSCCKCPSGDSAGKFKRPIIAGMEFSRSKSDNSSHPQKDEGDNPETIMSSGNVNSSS
Nature of the experiment: S1P-stimulated calcium increases in HTC cells expressing Edg-1. The format is cell-based. The following applies: concentrations as high as 10 μM.

For another experiment, the target named is T4, Edg-6 (Homo sapiens, UniProt O95977).
T4 construct: expressed in transfected cells; host or cells: HTC (rat hepatoma) cells
T4 sequence (O95977 1-384): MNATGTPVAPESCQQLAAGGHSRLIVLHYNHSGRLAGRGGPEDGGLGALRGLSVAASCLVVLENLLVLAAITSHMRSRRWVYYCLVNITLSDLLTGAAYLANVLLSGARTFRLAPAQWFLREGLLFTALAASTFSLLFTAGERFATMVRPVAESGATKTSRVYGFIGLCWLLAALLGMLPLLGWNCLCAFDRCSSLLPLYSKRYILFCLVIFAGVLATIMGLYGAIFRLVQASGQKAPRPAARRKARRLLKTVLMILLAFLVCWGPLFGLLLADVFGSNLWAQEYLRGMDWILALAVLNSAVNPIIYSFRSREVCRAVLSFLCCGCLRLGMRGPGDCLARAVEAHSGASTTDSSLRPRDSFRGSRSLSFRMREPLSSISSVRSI
The experiment in a line: S1P-stimulated calcium increases in HTC cells expressing Edg-6. In kind it is cell-based. To be noted: concentrations as high as 10 μM.

The target in the next experiment is T5, human Edg-3 receptors (Homo sapiens, UniProt Q99500).
T5 construct: expressed in transfected cells; host or cells: HTC (rat hepatoma) cells
T5 sequence (Q99500 whole entry): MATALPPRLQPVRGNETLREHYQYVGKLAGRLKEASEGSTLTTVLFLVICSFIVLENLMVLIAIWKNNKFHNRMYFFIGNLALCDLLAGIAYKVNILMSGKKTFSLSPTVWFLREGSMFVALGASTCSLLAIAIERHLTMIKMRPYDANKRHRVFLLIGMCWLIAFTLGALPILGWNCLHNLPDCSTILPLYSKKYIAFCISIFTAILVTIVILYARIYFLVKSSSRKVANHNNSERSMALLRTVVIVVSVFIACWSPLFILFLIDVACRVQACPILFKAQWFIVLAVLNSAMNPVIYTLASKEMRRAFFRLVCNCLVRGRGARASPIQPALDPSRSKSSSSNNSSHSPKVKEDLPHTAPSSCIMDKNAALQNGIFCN
The experiment in a line: Calcium response in HTC cells expressing human Edg-3 receptors. The format is cell-based. To be noted: HTC cells expressing human Edg-3 receptors (also tested in NIH 3T3 cell lines that naturally express Edg-3); FIG. 1. The source says: Specific assays for Edg-3 receptor activity are known to those of skill in the art. For example, cells expressing Edg-3 receptors can be contacted with a membrane-permeant calcium sensitive dye such as Fluo-4 AM or a proprietary calcium dye loading kit (e.g., FLIPR Calcium Assay kit, Molecular Devices, Sunnyvale, Calif.). Intracellular calcium is capable of binding to the dye and emitting fluorescent radiation when illuminated at the appropriate wavelength. The cells can thus be illuminated an appropriate wavelength for the dye and any emitting light can be captured by a cooled CCD camera. Changes in fluorescence indicate changes in intracellular calcium resulting from the activation of an Edg-3 receptor. Such changes can be measured advantageously in whole cells in “real-time” (Berridge et al., Nature Reviews 2000, 1:11-21).
The compounds were tested in HTC cells expressing human Edg-3 receptors, as well as in NIH 3T3 cell lines that naturally express Edg-3 receptors. […] The compounds are tested in this recombinant system first, and subsequently tested in cell lines expressing Edg-3 (in addition to other Edg receptors).

Another experiment concerns the target T6, Edg-4 (Homo sapiens, UniProt Q9HBW0).
T6 construct: expressed in transfected cells; host or cells: HTC (rat hepatoma) cells
Nature of the experiment: LPA-stimulated calcium increases in HTC cells expressing Edg-4. The format is cell-based. The following applies: concentrations as high as 10 μM.

Molecules are shown by their SMILES. “Also recorded” adds a separate entry of the source.

T6 sequence (Q9HBW0 whole entry, species assumed): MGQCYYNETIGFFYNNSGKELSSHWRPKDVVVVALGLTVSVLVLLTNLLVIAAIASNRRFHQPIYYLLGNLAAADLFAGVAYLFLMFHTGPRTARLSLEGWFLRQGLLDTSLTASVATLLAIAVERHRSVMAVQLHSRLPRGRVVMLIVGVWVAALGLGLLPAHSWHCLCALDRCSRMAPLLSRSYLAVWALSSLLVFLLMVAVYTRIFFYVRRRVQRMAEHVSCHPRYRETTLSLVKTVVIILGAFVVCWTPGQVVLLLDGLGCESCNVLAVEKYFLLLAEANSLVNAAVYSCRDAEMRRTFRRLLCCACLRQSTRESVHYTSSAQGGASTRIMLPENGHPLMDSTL

For the compound `Cc1c(-c2ccccc2)nc2ccccc2c1C(=O)NCc1ccc(F)cc1` [Compound 101], the “inhibition of LPA-stimulated calcium increases” value on Edg-7 and on Edg-4 was “did not inhibit” in each case. Moreover, the “activity in radioligand binding assay” value with Adrenergic β and on Dopamine D2L was “no significant activity” in each case. The “inhibition of S1P-stimulated calcium increases” value on Edg-1 and at Edg-6 was “did not inhibit” in each case. Also, the “inhibition of Edg-3 stimulated SP1 responses” value at human Edg-3 receptors is reported as “demonstrate inhibition; also recorded: specifically inhibit”.

The record behind these values is patent US20040167181A1, “Methods of treating conditions associated with an Edg-3 receptor” (priority 2003, published 2004).
